Test results as given in patent publication US12673044B2, “Methods of treating borderline personality disorder” (ORYZON GENOMICS, S.A., priority 2019, dated 2026).

Key:
[1] = test system: BPD patients; assay: Phase IIa REIMAGINE trial, BPD cohort: efficacy by Borderline Personality Disorder Checklist (BPDCL); type: in vivo, human; details: 5 BPD patients, 1.2 mg/day oral free base, 5 days on/2 days off, 8 weeks, paired one-tail t-test
Text: (§1) As part of a Phase IIa clinical trial (REIMAGINE trial, EudraCT number 2018-002140-88) to evaluate the safety, tolerability and efficacy of the KDM1A inhibitor vafidemstat to treat aggression in adult population in patients with different CNS disorders, a cohort of BPD patients was recruited and treated with vafidemstat for 8 weeks. A summary of the protocol of this clinical trial and results obtained in the BPD cohort are provided below.
(§2) Reimagine is a unicenter, open-label, 1-arm, 8-week clinical study to evaluate the efficacy, safety and tolerability of vafidemstat in aggression in adult population with Alzheimer's Disease (AD), Lewy Body Dementia (LBD), Adult attention Deficit Hyperactivity Disorder (ADHD), Borderline Personality Disorder (BPD) and Autism Spectrum Disorder (ASD). Six patients to be recruited per disorder.
Treatment: All patients received vafidemstat (as free base) at a dose of 1.2 mg/day, administered orally as a single capsule, in a 5 days on/2 days off schedule, during 8 weeks.
Six BPD patients were recruited, but there was one drop-out, and therefore the results as described herein correspond to the 5 BPD subjects eligible for analysis. A summary of the patients recruited in this BPD cohort (demographic data at baseline) can be found in Table 1.
Assessment of efficacy of treatment in BPD patients was performed using a validated scale specific for BPD, the Borderline Personality Disorder Checklist (BPDCL). The BPDCL is an instrument specifically designed to evaluate the subjective burden of BPD in the last month and also to rate BPD changes after therapeutic intervention. Originally developed in Dutch, the BPDCL has been subsequently translated into English, Spanish and other languages, and has been applied to clinical and non-clinical samples. […]
One can use the total sum score on the BPDCL (BPDCL Total Score) as an overall index of the subjective burden caused by BPD symptoms, or one can use sum scores for one or more of the separate BPD domains. […] Efficacy assessments were always measured prior to treatment administration on the corresponding visit day. […]

[2] = test system: BPD patients; assay: Phase IIa REIMAGINE trial, BPD cohort: safety and tolerability; type: in vivo, human; details: 1.2 mg/day oral free base, 5 days on/2 days off, 8 weeks; without significant adverse events
Text: as §1, §2
Main objective of the trial: To evaluate the safety and tolerability of vafidemstat in adult population with Alzheimer's Disease (AD), Lewy Body Dementia (LBD), Adult attention deficit hyperactivity disorder (ADHD), Borderline Personality Disorder (BPD), Autism Spectrum Disorder (ASD)
Treatment: All patients received vafidemstat (as free base) at a dose of 1.2 mg/day, administered orally as a single capsule, in a 5 days on/2 days off schedule, during 8 weeks. […]

Nc1nnc(CN[C@@H]2C[C@H]2c2ccc(OCc3ccccc3)cc2)o1 [vafidemstat, 5-((((1R,2S)-2-(4-(benzyloxy)phenyl)cyclopropyl)amino)methyl)-1,3,4-oxadiazol-2-amine]
Aggression-related BPDCL domains combined score (anger control, impulsivity, (para)suicide), change from visit 1 (baseline) to visit 7 ([1]; p=0.0029, FIG. 1): statistically significant reduction
BPDCL Total score, change from visit 1 (baseline) to visit 7 ([1]; p=0.0048, FIG. 2): statistically significant reduction
Non-aggression-related BPDCL domains combined score (abandonment, relationships, identity disturbance, affective instability, emptiness, dissociation), change from visit 1 (baseline) to visit 7 ([1]; p=0.0234, FIG. 3): statistically significant reduction
Safety and tolerability of treatment in BPD patients [2]: safe and well tolerated
